Experimental data as given in patent US4950605A, “FR-900493 substance, a process for its production and a pharmaceutical composition containing the same” (Fujisawa Pharmaceutical Co., Ltd., priority 1988, dated 1990).
Values after ≈ are worked out from the molar mass of the structure shown.

Tests used:
[1] = test system: Staphylococcus aureus 1601-6; experiment: Antimicrobial activity, MIC on 1/2 Mueller-Hinton agar; type: cell-based; details: 37° C., 24 hours
Experimental: (§1) Antimicrobial activities: (a) Test Method One loopful of an overnight culture (10^8 cells/ml) of each test bacteria in bouillon was streaked on 1/2 Mueller-Hinton agar containing the graded concentration of the FR-900493 substance and the minimal inbibitory concentration (MIC) was determined after incubation at 37° C. for 24 hours.

[2] = test system: Bacillus subtilis ATCC-6633; experiment: as above; type: cell-based; details: 37° C., 24 hours
Experimental: as §1

[3] = test system: Staphylococcus aureus 209P JC-1; experiment: as above; type: cell-based; details: 37° C., 24 hours
Experimental: as §1

Acute toxicity in mice = type: in vivo; details: intravenous; ddY mice, 4 weeks age, male
Experimental: The median lethal dose (LD50) of the FR-900493 substance in mice (ddY, 4 weeks age, male) by intravenous administration was >500 mg/kg.

[4] = test system: Staphylococcus aureus 1601-47; experiment: Protective efficacy in experimental infections in mice; type: in vivo, ddY mouse (infected with Staphylococcus aureus 1601-47); details: 30 mg/kg subcutaneous, one hour after intraperitoneal infection with 3×10^6 cells; male ddY mice 5 weeks; observed 2 days
Experimental: Protective efficacy in experimental infections in mice: The in vivo activity of the FR-900493 substance against experimental infections due to Staphylococcus aureus 1601-47 was examined. One hour after the intraperitoneal injection of 3×10^6 cell of the test strain to each ddY mouse (male, 5 weeks age), the solution of the FR-900493 substance was administered subcutaneously.

Q: Which “minimal inhibitory concentration (MIC)” value [1] does the source give for `CN(CCCN)[C@H](C(=O)O)[C@H](O[C@@H]1O[C@H](CN)[C@@H](O)[C@H]1O)[C@H]1O[C@@H](n2ccc(=O)[nH]c2=O)[C@H](O)[C@@H]1O` [FR-900493 substance] here?
A: Its value is 6.25 µg/mL (≈ 12 µM).

Q: What about the “minimal inhibitory concentration (MIC)” value [2] of the same molecule?
A: Its value is 3.13 µg/mL (≈ 6.02 µM).

Q: What about the “minimal inhibitory concentration (MIC)” value [3] of the same molecule?
A: The value was 3.13 µg/mL (≈ 6.02 µM).

Q: What about the “median lethal dose (LD50)” value (Acute toxicity in mice) of the same molecule?
A: Its value is over 500 mg/kg.

Q: What about the Survival [4] of the same molecule?
A: The Survival was 100%.
